Earlier results as cited in patent publication US8617906B2, “Identification and screening of triptolide target molecules” (priority 2004, dated 2013).

Key:
[1] = in vivo; cited from earlier work
Akt/PKB = conditions: cited from earlier work
AML cells = conditions: cited from earlier work
IL-2 = conditions: cited from earlier work
[2] = test system: human T cell lymphoma (Jurkat) cells; conditions: cited from earlier work
[3] = cited from earlier work
Thioredoxin reductase = Thioredoxin reductase (Homo sapiens, UniProt Q16881); conditions: cited from earlier work
Chain of Thioredoxin reductase (Q16881 151-649 limits assumed): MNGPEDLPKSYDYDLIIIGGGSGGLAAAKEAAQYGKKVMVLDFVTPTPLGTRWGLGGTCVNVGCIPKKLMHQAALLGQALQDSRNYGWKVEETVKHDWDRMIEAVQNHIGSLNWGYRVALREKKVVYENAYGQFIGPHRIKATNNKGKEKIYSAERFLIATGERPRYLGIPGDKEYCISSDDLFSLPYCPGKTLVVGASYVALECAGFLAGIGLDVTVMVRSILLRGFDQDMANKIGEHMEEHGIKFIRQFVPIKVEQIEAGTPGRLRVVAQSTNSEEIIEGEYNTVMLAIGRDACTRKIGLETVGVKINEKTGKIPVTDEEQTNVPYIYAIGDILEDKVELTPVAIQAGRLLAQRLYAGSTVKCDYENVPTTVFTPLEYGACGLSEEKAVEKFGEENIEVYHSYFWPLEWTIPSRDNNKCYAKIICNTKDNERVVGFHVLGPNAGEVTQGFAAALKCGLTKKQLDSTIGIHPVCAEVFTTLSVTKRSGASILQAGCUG

dopaminergic neurons = conditions: cited from earlier work
[4] = 0.5-1 μg/kg; cited from earlier work

Molecule: 14-succinimide ester of triptolide
- bleomycin-induced PF [1]: block bleomycin-induced PF

Molecule: Cc1cc(C)c(/C=C2\C(=O)Nc3ccccc32)[nH]1 [SU-5416]
- VEGF-stimulated phosphorylation of Akt/PKB (Akt/PKB): abolished
- VEGF-induced colony formation / clonogenic response (AML cells): abolished

Molecule: CC(C)[C@]12O[C@H]1[C@@H]1O[C@]13[C@]1(O[C@H]1C[C@H]1C4=C(CC[C@@]13C)C(=O)OC4)[C@H]2F [PG763, 14-deoxy-14α-fluoro triptolide]
- inhibition of IL-2 (IL-2): inhibition of IL-2
- cytotoxicity [2]: cytotoxicity in human T cell lymphoma (Jurkat) cells

Molecule: CC(C)[C@]12O[C@H]1[C@@H]1O[C@]13[C@]1(O[C@H]1C[C@H]1C4=C(CC[C@@]13C)C(=O)OC4)[C@@H]2OC(=O)CCC(=O)[O-].[Na+] [PG490-88]
- conversion in vivo to triptolide [3]: converting in vivo to triptolide

Molecule: CC(=O)OC[C@H]1O[C@@H]([S-])[C@H](OC(C)=O)[C@@H](OC(C)=O)[C@@H]1OC(C)=O.CCP(CC)CC.[Au+] [auranofin]
- thioredoxin reductase as drug target (Thioredoxin reductase): target of auranofin

Molecule: CC(C)[C@]1(O)[C@H](Cl)[C@@H]2O[C@]23[C@]2(O[C@H]2C[C@H]2C4=C(CC[C@@]23C)C(=O)OC4)[C@@H]1O [Tripchlorolide]
- dopaminergic neuron axonal elongation (dopaminergic neurons): promotes dopaminergic neuron axonal elongation
- protection from neurotoxic lesion induced by 1-methyl-4-phenylpyridinium ion (dopaminergic neurons): protects dopaminergic neurons from a neurotoxic lesion
- brain-derived neurotrophic factor mRNA expression (dopaminergic neurons; in situ hybridization): stimulates brain-derived neurotrophic factor mRNA expression
- TNF-α and IL-2 levels in the brain [4]: attenuates the elevation of TNF-α and IL-2 levels in the brain
- dopamine depletion [4]: attenuates dopamine depletion
- recovery of rats undergoing neurosurgery [4]: improves recovery of rats undergoing neurosurgery
- sparing of SN neurons [4]: significant sparing of SN neurons
- survival of dopaminergic neurons [4]: increases the survival of dopaminergic neurons
- conversion in vivo to triptolide [3]: prodrug of triptolide
